Common to all, as to assay type: binding
Experiment [1] has as its target T1, STAT3 (Homo sapiens, UniProt P40763). Put plainly: Competitive fluorescence polarization (FP) assay, STAT3. To be noted: no reducing agent, 1 h. The text has this:
(§1) Screening of chemical libraries
(§2) Screening of chemical libraries comprising approximately 5000 known bioactive compounds in fluorescence polarization-based assays against phosphorylation-dependent protein-protein interaction domains, including STAT proteins, has been described.[1] PPADS was purchased from Sigma-Aldrich, and iso-PPADS from Bio-Techne.
(§3) Fluorescence polarization assays
(§4) Competitive fluorescence polarization (FP) assays for STAT1,[2] STAT3,[3] STAT4,[4] STAT5a,[5] STAT5b[6] and STAT6[1] were performed as previously described. Briefly, peptide binding to proteins was analyzed using the following carboxyfluorescein (CF) -labelled pepti des at a concentration of 10 nM: STAT1: 5-CF-GpYDKPHVL-OH, STAT3: 5-CF-GpYLPQTV -NH2, STAT4: 5-CF-GpYLPQNID-OH, STAT5a and STAT5b: 5-CF-GpYLVLDKW-OH, STAT6: 5- […]
(§5) CFGp[…]-OH. Proteins were used at a final concentration representing the approximate Kd value for binding of the corresponding peptide to the protein, namely 65 nM for STAT1, 65 nM for STAT3, 35 nM for STAT4, 125 nM for STAT5a, 65 nM for STAT5b and 75 nM for STAT6. […] FP was measured using an Infinite F500 plate reader (Tecan) and measurements were converted into percent inhibition according to the binding curve equation. Curves were plotted and best fits calculated using OriginPro […]

In the next experiment the target is T2, STAT5b (Homo sapiens, UniProt P51692).
T2 sequence (P51692 1-787): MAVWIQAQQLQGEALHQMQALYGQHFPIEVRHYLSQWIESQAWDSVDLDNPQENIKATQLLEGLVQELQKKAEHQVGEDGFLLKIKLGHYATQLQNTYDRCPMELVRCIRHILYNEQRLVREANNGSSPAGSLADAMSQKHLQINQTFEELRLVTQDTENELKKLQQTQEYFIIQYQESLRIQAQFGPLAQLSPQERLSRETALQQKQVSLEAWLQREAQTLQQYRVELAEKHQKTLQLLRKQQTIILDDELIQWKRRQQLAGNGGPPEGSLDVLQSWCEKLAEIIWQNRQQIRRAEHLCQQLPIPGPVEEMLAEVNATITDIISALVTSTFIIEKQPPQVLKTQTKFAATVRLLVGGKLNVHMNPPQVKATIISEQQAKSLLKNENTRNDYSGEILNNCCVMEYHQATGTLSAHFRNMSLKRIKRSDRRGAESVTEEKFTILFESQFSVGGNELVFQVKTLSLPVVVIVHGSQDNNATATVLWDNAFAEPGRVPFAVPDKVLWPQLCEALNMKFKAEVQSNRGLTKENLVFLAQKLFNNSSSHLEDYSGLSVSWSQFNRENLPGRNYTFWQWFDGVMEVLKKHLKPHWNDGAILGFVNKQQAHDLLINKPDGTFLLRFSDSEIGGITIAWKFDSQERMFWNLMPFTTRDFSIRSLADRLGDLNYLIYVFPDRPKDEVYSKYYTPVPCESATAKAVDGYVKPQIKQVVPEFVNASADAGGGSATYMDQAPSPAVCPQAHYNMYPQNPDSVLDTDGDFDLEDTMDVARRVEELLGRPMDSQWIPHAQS
In words: Competitive fluorescence polarization (FP) assay, STAT5b. To be noted: no reducing agent, 1 h.
Excerpt: as §1, §2, §3, §4, §5

In experiment [2] the target is T1, STAT3. Put plainly: HTRF assay, STAT3. On the set-up: the endogenous full‐length proteins (between 748 and 793 amino acids for STAT3/4/5a/5b); endogenous in cells; host or cells: NK-92 cells (DSMZ), whole-cell lysate. To be noted: STAT3 110 nM, without reducing agent, 1 h. (In general: Time-resolved FRET reads energy transfer from a long-lived donor to a nearby acceptor.)
Description: In addition, an HTRF assay was established for STAT3, one of the STAT proteins targeted to a lesser extent in FP assays, as a specificity control (Figure 1B,C). […] A Tb^3+‐cryptate fused to an anti‐6x‐His antibody was chosen as the long‐lived fluorescent donor, while the carboxyfluorescein linked to the respective STAT‐binding peptides served as the acceptor (Figure 2A). Emission was measured with a time delay of 60 μs after excitation, allowing any initial compound fluorescence to decay beforehand.
Homogenous time-resolved fluorescence (HTRF) assays for STAT3, STAT4, STAT5a and STAT5b were carried out using Cisbio Monoclonal Antibody Anti-6His-Tb Gold as the fluorescence donor (Perkin Elmer) and the corresponding CF-labelled binding peptide as the acceptor. Protein at 110 nM (STAT3), 30 nM (STAT4), 110 nM (STAT 5a) or 80 nM (STAT5b) was combined with terbium-labelled antibody at the recommended concentration, 150 nM CF-labelled peptide and compound as indicated, and incubated at room temperature for 1 h. […] Fluorescence /luminescence was measured in Proxiplate 384-well plates (Perkin Elmer), using a 340 nm excitation filter with 520 nm and 620 nm emission filters, with 60 µs time delay. The average reading from 3 wells was obtained. After subtraction of the blank (buffer only) from each reading, the ratio of the 520 nm / 620 nm readings was calculated. […]

T1 sequence (P40763 whole entry, species assumed): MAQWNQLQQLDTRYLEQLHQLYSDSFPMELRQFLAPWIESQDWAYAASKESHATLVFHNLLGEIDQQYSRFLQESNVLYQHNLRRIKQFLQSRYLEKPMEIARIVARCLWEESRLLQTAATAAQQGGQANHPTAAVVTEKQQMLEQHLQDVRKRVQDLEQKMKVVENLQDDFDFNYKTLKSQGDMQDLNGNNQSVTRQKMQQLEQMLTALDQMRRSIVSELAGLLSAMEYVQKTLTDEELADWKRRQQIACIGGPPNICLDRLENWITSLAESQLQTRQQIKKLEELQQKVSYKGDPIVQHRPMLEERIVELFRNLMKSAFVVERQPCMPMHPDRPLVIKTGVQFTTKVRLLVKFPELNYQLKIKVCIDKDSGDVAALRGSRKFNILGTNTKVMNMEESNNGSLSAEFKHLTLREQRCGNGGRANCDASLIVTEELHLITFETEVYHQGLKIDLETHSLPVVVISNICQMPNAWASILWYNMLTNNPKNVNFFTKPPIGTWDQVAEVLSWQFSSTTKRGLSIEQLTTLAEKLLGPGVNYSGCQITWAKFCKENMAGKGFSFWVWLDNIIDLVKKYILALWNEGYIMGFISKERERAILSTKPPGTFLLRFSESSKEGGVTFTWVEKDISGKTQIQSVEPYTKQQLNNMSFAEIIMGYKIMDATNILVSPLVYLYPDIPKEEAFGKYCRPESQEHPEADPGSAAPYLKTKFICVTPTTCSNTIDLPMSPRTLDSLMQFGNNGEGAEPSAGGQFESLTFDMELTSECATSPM

Turning to `Cc1nc(/N=N/c2cc(S(=O)(=O)O)ccc2S(=O)(=O)O)c(COP(=O)(O)O)c(C=O)c1O` [iso‐PPADS], the IC50 – broadly, the midpoint of a concentration-inhibition curve – at STAT3 [1] was 54 ± 14 µM; on STAT5b, 1.9 ± 0.1 µM; on STAT3 [2], 31.9 ± 4 µM.

Consider `Cc1nc(/N=N/c2ccc(S(=O)(=O)O)cc2S(=O)(=O)O)c(COP(=O)(O)O)c(C=O)c1O` [PPADS, pyridoxalphosphate‐6‐azophenyl‐2',4'‐disulfonic acid], for which the concentration for half-maximal inhibition (IC50) at STAT3 [1] came out at 22.6 ± 1.6 µM; on STAT5b, 2 ± 0.3 µM; against STAT3 [2], 29.6 ± 4 µM.
